# Laboratory results published in ChEMBL document CHEMBL1143809, “New bis-N9-(methylphenylmethyl)purine derivatives: synthesis and antitumor activity” (2007).
# Experiments:
# Assay type in all cases: functional
# HT-29 = experiment: Growth inhibition of human HT29 cells after 48 hrs by SRB protein assay; conditions: HT-29, 48 h
# SF-268 = experiment: Growth inhibition of human SF268 cells after 48 hrs by SRB protein assay; conditions: SF-268, 48 h
# SN12C = experiment: Growth inhibition of human SN12C cells after 48 hrs by SRB protein assay
# M14 = experiment: Growth inhibition of human M14 cells after 48 hrs by SRB protein assay; conditions: M14, 48 h
# K562 = experiment: Growth inhibition of human K562 cells after 48 hrs by SRB protein assay; conditions: K562, 48 h; for CC50: read-out: LC50 (the source's name)
# [1] = Growth inhibition of human NCL-H23 cells after 48 hrs by SRB protein assay; conditions: NCL-H23, 48 h
# UO-31 = experiment: Growth inhibition of human UO31 cells after 48 hrs by SRB protein assay; conditions: UO-31, 48 h
# IGROV-1 = experiment: Growth inhibition of human IGROV1 cells after 48 hrs by SRB protein assay; conditions: IGROV-1, 48 h
# SW-620 = experiment: Growth inhibition of human SW620 cells after 48 hrs by SRB protein assay; conditions: SW-620, 48 h; for CC50: read-out: LC50 (the source's name)
# SF-539 = experiment: Growth inhibition of human SF539 cells after 48 hrs by SRB protein assay; conditions: SF-539, 48 h
# OVCAR-8 = experiment: Growth inhibition of human OVCAR8 cells after 48 hrs by SRB protein assay; conditions: OVCAR-8, 48 h
# OVCAR-4 = experiment: Growth inhibition of human OVCAR4 cells after 48 hrs by SRB protein assay; conditions: OVCAR-4, 48 h
# SF-295 = experiment: Growth inhibition of human SF295 cells after 48 hrs by SRB protein assay; conditions: SF-295, 48 h
# SK-MEL-5 = experiment: Growth inhibition of human SK-MEL-5 cells after 48 hrs by SRB protein assay; conditions: SK-MEL-5, 48 h
# CAKI-1 = experiment: Growth inhibition of human CAKI1 cells after 48 hrs by SRB protein assay; conditions: CAKI-1, 48 h; for CC50: read-out: LC50 (the source's name)
# OVCAR-5 = experiment: Growth inhibition of human OVCAR5 cells after 48 hrs by SRB protein assay; conditions: OVCAR-5, 48 h; for CC50: read-out: LC50 (the source's name)
# HCT-15 = experiment: Growth inhibition of human HCT15 cells after 48 hrs by SRB protein assay; conditions: HCT-15, 48 h
# [2] = Growth inhibition of human NCL-H226 cells after 48 hrs by SRB protein assay; conditions: NCL-H226, 48 h
# T47D = experiment: Growth inhibition of human T47D cells after 48 hrs by SRB protein assay
# SNB-19 = experiment: Growth inhibition of human SNB19 cells after 48 hrs by SRB protein assay; conditions: SNB-19, 48 h; for CC50: read-out: LC50 (the source's name)
# SK-MEL-2 = experiment: Growth inhibition of human SK-MEL-2 cells after 48 hrs by SRB protein assay; conditions: SK-MEL-2, 48 h; for CC50: read-out: LC50 (the source's name)
# RPMI-8226 = experiment: Growth inhibition of human RPMI8226 cells after 48 hrs by SRB protein assay; conditions: RPMI-8226, 48 h; for CC50: read-out: LC50 (the source's name)
# MDA-MB-231 = experiment: Growth inhibition of human MDA-MB-231 cells after 48 hrs by SRB protein assay; conditions: MDA-MB-231, 48 h
# Hs-578T = experiment: Growth inhibition of human HS578T cells after 48 hrs by SRB protein assay
# SK-OV-3 = experiment: Growth inhibition of human SK-OV-3 cells after 48 hrs by SRB protein assay; conditions: SK-OV-3, 48 h
smiles,measurement,setting,value
Clc1nc(Cl)c2ncn(Cc3ccc(Cn4cnc5c(Cl)nc(Cl)nc54)cc3)c2n1,GI50,HT-29,< 0.01 µM
same,LC50,HT-29,39.8 µM
same,TGI,HT-29,15.8 µM
same,GI50,SF-268,15.5 µM
same,LC50,SF-268,> 100 µM
same,TGI,SF-268,38.9 µM
same,GI50,SN12C,14.1 µM
same,LC50,SN12C,52.5 µM
same,TGI,SN12C,27.5 µM
same,LC50,M14,52.5 µM
same,TGI,M14,27.5 µM
same,GI50,K562,2.88 µM
same,TGI,K562,16.6 µM
same,CC50,K562,40.7 µM
same,GI50,[1],13.8 µM
same,LC50,[1],51.3 µM
same,TGI,[1],26.9 µM
same,GI50,UO-31,10 µM
same,LC50,UO-31,46.8 µM
same,TGI,UO-31,21.4 µM
same,GI50,IGROV-1,12.9 µM
same,LC50 (50% lethal concentration),IGROV-1,50.1 µM
same,TGI,IGROV-1,25.1 µM
same,GI50,SW-620,< 0.01 µM
same,TGI,SW-620,2.63 µM
same,CC50,SW-620,8.31 µM
same,LC50,SF-539,37.1 µM
same,TGI,SF-539,13.8 µM
same,GI50,OVCAR-8,3.02 µM
same,LC50,OVCAR-8,49 µM
same,TGI,OVCAR-8,8.13 µM
same,GI50,OVCAR-4,14.3 µM
same,LC50,OVCAR-4,52.5 µM
same,TGI,OVCAR-4,27.5 µM
same,GI50,SF-295,19.1 µM
same,LC50,SF-295,85.1 µM
same,TGI,SF-295,40.7 µM
same,GI50,SK-MEL-5,10.7 µM
same,LC50,SK-MEL-5,47.9 µM
same,TGI,SK-MEL-5,22.9 µM
same,GI50,CAKI-1,15.8 µM
same,TGI,CAKI-1,30.2 µM
same,CC50,CAKI-1,57.5 µM
same,TGI,OVCAR-5,26.3 µM
same,CC50,OVCAR-5,51.3 µM
same,GI50,HCT-15,13.2 µM
same,LC50,HCT-15,51.3 µM
same,TGI,HCT-15,25.7 µM
same,GI50,[2],17 µM
same,LC50,[2],93.3 µM
same,TGI,[2],39.8 µM
same,GI50,T47D,1.62 µM
same,LC50,T47D,42.6 µM
same,TGI,T47D,13.5 µM
same,TGI,SNB-19,21.9 µM
same,CC50,SNB-19,46.8 µM
same,TGI,SK-MEL-2,23.4 µM
same,CC50,SK-MEL-2,49 µM
same,GI50,RPMI-8226,6.45 µM
same,TGI,RPMI-8226,25.1 µM
same,CC50,RPMI-8226,75.9 µM
same,LC50 (50% lethal concentration),MDA-MB-231,46.8 µM
same,TGI,MDA-MB-231,21.9 µM
same,GI50,Hs-578T,< 0.01 µM
same,LC50 (concentration killing 50% of cells),Hs-578T,43.6 µM
same,TGI,Hs-578T,16.2 µM
Clc1nc(Cl)c2ncn(Cc3ccccc3Cn3cnc4c(Cl)nc(Cl)nc43)c2n1,GI50,HT-29,3.31 µM
same,LC50,HT-29,> 100 µM
same,TGI,HT-29,> 100 µM
same,GI50,SF-268,6.76 µM
same,LC50,SF-268,95.5 µM
same,TGI,SF-268,26.9 µM
same,GI50,SN12C,2.51 µM
same,LC50,SN12C,26.9 µM
same,TGI,SN12C,6.61 µM
same,GI50,M14,15.8 µM
same,LC50,M14,61.7 µM
same,TGI,M14,38.9 µM
same,GI50,K562,1.95 µM
same,TGI,K562,4.47 µM
same,CC50,K562,15.5 µM
same,GI50,[1],15.5 µM
same,LC50,[1],67.6 µM
same,TGI,[1],32.4 µM
same,GI50,UO-31,1.95 µM
same,LC50,UO-31,7.41 µM
same,TGI,UO-31,3.8 µM
same,GI50,IGROV-1,5.25 µM
same,LC50 (50% lethal concentration),IGROV-1,57.5 µM
same,TGI,IGROV-1,17.8 µM
same,GI50,SW-620,1.86 µM
same,TGI,SW-620,3.98 µM
same,CC50,SW-620,8.32 µM
same,LC50,SF-539,0.49 µM
same,TGI,SF-539,0.14 µM
same,GI50,OVCAR-8,3.02 µM
same,LC50,OVCAR-8,49 µM
same,TGI,OVCAR-8,8.13 µM
same,GI50,OVCAR-4,2.09 µM
same,LC50,OVCAR-4,8.71 µM
same,TGI,OVCAR-4,4.23 µM
same,GI50,SF-295,15.1 µM
same,LC50,SF-295,57.3 µM
same,TGI,SF-295,28.2 µM
same,GI50,SK-MEL-5,2.24 µM
same,LC50,SK-MEL-5,22.9 µM
same,TGI,SK-MEL-5,6.17 µM
same,GI50,SK-OV-3,11.5 µM
same,TGI,SK-OV-3,31.6 µM
same,CC50,SK-OV-3; read-out: LC50 (the source's name),87.1 µM
same,GI50,CAKI-1,1.73 µM
same,TGI,CAKI-1,3.09 µM
same,CC50,CAKI-1,5.62 µM
same,GI50,OVCAR-5,20.9 µM
same,TGI,OVCAR-5,38 µM
same,CC50,OVCAR-5,70.8 µM
same,GI50,HCT-15,1.86 µM
same,LC50,HCT-15,12.6 µM
same,TGI,HCT-15,4.47 µM
same,GI50,[2],3.09 µM
same,LC50,[2],26.9 µM
same,TGI,[2],7.24 µM
same,GI50,T47D,2.19 µM
same,LC50,T47D,> 100 µM
same,TGI,T47D,5.89 µM
same,GI50,SNB-19,3.98 µM
same,TGI,SNB-19,> 100 µM
same,CC50,SNB-19,> 100 µM
same,GI50,SK-MEL-2,6.31 µM
same,TGI,SK-MEL-2,26.9 µM
same,CC50,SK-MEL-2,> 100 µM
same,GI50,RPMI-8226,0.55 µM
same,TGI,RPMI-8226,2.34 µM
same,GI50,MDA-MB-231,1.82 µM
same,LC50 (50% lethal concentration),MDA-MB-231,6.46 µM
same,TGI,MDA-MB-231,3.39 µM
same,GI50,Hs-578T,3.09 µM
same,LC50 (concentration killing 50% of cells),Hs-578T,> 100 µM
same,TGI,Hs-578T,11.2 µM
Clc1nc(Cl)c2ncn(Cc3cccc(Cn4cnc5c(Cl)nc(Cl)nc54)c3)c2n1,GI50,HT-29,4.46 µM
same,LC50,HT-29,> 100 µM
same,TGI,HT-29,> 100 µM
same,GI50,SF-268,12.9 µM
same,LC50,SF-268,75.9 µM
same,TGI,SF-268,31.6 µM
same,GI50,SN12C,4.67 µM
same,LC50,SN12C,60.2 µM
same,TGI,SN12C,18.2 µM
same,GI50,M14,2.75 µM
same,LC50,M14,33.9 µM
same,TGI,M14,7.58 µM
same,GI50,K562,3.09 µM
same,TGI,K562,17 µM
same,CC50,K562,> 100 µM
same,GI50,[1],8.51 µM
same,LC50,[1],52.5 µM
same,TGI,[1],21.9 µM
same,GI50,UO-31,1.9 µM
same,LC50,UO-31,6.6 µM
same,TGI,UO-31,3.54 µM
same,GI50,IGROV-1,7.41 µM
same,LC50 (50% lethal concentration),IGROV-1,47.9 µM
same,TGI,IGROV-1,20.4 µM
same,GI50,SW-620,1.82 µM
same,TGI,SW-620,3.31 µM
same,CC50,SW-620,6.16 µM
same,GI50,SF-539,1.38 µM
same,LC50,SF-539,7.07 µM
same,TGI,SF-539,3.16 µM
same,GI50,OVCAR-8,4.67 µM
same,LC50,OVCAR-8,72.4 µM
same,TGI,OVCAR-8,18.6 µM
same,GI50,OVCAR-4,15.1 µM
same,LC50,OVCAR-4,55 µM
same,TGI,OVCAR-4,28.8 µM
same,GI50,SF-295,16.6 µM
same,LC50,SF-295,57.5 µM
same,TGI,SF-295,30.9 µM
same,GI50,SK-MEL-5,2.45 µM
same,LC50,SK-MEL-5,22.4 µM
same,TGI,SK-MEL-5,5.88 µM
same,GI50,CAKI-1,12 µM
same,TGI,CAKI-1,26.3 µM
same,CC50,CAKI-1,57.5 µM
same,GI50,OVCAR-5,20.9 µM
same,TGI,OVCAR-5,38 µM
same,CC50,OVCAR-5,70.8 µM
same,GI50,HCT-15,5.75 µM
same,LC50,HCT-15,74.1 µM
same,TGI,HCT-15,22.4 µM
same,GI50,[2],4.78 µM
same,LC50,[2],> 100 µM
same,TGI,[2],26.9 µM
same,GI50,T47D,3.02 µM
same,LC50,T47D,> 100 µM
same,TGI,T47D,8.51 µM
same,GI50,SNB-19,3.02 µM
same,TGI,SNB-19,13.8 µM
same,CC50,SNB-19,60.2 µM
same,GI50,SK-MEL-2,2.81 µM
same,TGI,SK-MEL-2,7.76 µM
same,CC50,SK-MEL-2,35.5 µM
same,GI50,RPMI-8226,2.57 µM
same,TGI,RPMI-8226,11.2 µM
same,CC50,RPMI-8226,> 100 µM
same,GI50,MDA-MB-231,2.63 µM
same,LC50 (50% lethal concentration),MDA-MB-231,30.2 µM
same,TGI,MDA-MB-231,7.07 µM
same,GI50,Hs-578T,2.69 µM
same,LC50 (concentration killing 50% of cells),Hs-578T,83.2 µM
same,TGI,Hs-578T,7.24 µM
